Results reported in US8440789B2, “Pharmaceutical and/or cosmetic composition containing an active antioxydant principle and cell energy activator” (Societe d'Extraction des Principes Actifs (Vincience), priority 2007, dated 2013).
Ends that are not written are not given here.

Assays:
Format in all cases: cell-based
Biopsies of human skin = experiment: Protection against stress induced by glycation, ex vivo skin culture, H&E histology; details: methyl glyoxal at 5 or 10 mM; peptide 1% of a 50 ppm mother solution, 24 hours before and 24 hours after glycation agent
Procedure: The goal of this study is to determine the protective effective of the peptide SEQ ID no 1, with respect to ex vivo epidermal culture subjected to stress by a glycation agent.
Biopsies of human skin are maintained in ex vivo culture, treated with a 1% solution, a mother solution of 50 ppm of peptide SEQ ID no 1, 24 hours before, and also 24 hours after the introduction of a glycation agent (methyl glyoxal at 5 or 10 mM). Histology hematoxyline-eosine (H&E) staining makes it possible to evaluate the quality of skin structures.

dermal fibroblasts [1] = experiment: Protection against oxidative damage: carbonylation of proteins (EIA/ELISA with DNP); details: for decrease in carbonylation: peptide 1% solution at 50 ppm, 72 hours before, during, 24 hours after stress
Text: The goal of this study is to determine the protector effect of the peptide SEQ ID no 1 with respect to dermal fibroblasts subjected to oxidative stress caused by UV rays or hydrogen peroxide (H2O2). To evaluate the oxidative damage suffered by the cells, measurements of the carbonylation of the proteins was done.
The carbonylation of proteins is the result of the oxidative splitting of proteins or oxidation of the arginine residues, lysine, proline or threonine. The dosage of the carbonylation of proteins is done using an EIA (Enzyme Immuno Assay) technique.
Fibroblasts in culture were placed in the presence of the peptide SEQ ID no 1 in a 1% solution, at 50 ppm, 72 hours before, during, and also 24 hours after the oxidative stress (UVB irradiation of 50 mJ/cm^2 or treatment par 2 mM of H2O2). untreated controls not subjected to oxidative stress are done.
The degree of carbonylation consists in the use of DNP (dinitrophenyl) which has the property to se fixer specifically on these carbonyl groups of the proteins. The fixed DNP is then assayed using an ELISA method, thanks to an anti-DNP antibody linked to peroxydase. A range of BSA (bovine albumin serum) oxidized (with a known concentration of carbonyl groups) is used for calibration.

dermal fibroblasts [2] = experiment: Synthesis of intracellular ATP (ATP Bioluminescence Assay Kit HS II); details: 1% solution of a 50 ppm solution of peptide, compared to the untreated cells
Procedure: The goal of this study is to determine the influence of the peptide SEQ ID no 2 on the synthesis of ATP.
This study was conducted using an “ATP Bioluminescence Assay Kit HS II” Kit (Roche Applied Science):
The dermal fibroblasts are treated with a 1% solution, a solution a 50 ppm, containing the peptide SEQ ID no 2, representative of the family of peptides according to the invention, for a period lasting from 1 to 3 hours. At the end of the incubation period, the wells are emptied of their medium and rinsed with 2 ml of cold PBS before adding 250 μl of a lysis buffer supplied by the kit. The cells of each well are then scrapped, then collected in 14 ml tubes. Each well is rinsed with 2×500 μl of cold PBS and everything is against collected the respective tubes. Beginning with these samples, a 1/12000th dilution is done in cold PBS before each reading. The dosage of ATP is done on these samples: 50 μL of this dilution is placed in a luma basin and 50 μl of luminol are added. After 10 seconds, the luminescence read is triggered. The values are standardized with respect to the quantity of proteins for each sample. The measures are done using an apparatus: the Biocounter M2010A LUMAC®/3M.

Row | Substance | evaluation of the skin structures (H&E staining) (Biopsies of human skin) | decrease in carbonylation (dermal fibroblasts [1]; UVB irradiation of 50 mJ/cm^2, compared to irradiated cells not treated) | reduction in the carbonylation of proteins (dermal fibroblasts [1]; cells treated with peptide (1% solution, at 50 ppm), compared to the untreated cells) | decrease in carbonylation (dermal fibroblasts [1]; oxidative stress by 2 mM of H2O2, compared to stressed cells not treated) | increase in the quantity of intracellular ATP (dermal fibroblasts [2]; after 1 hour of culture) | increase in the quantity of intracellular ATP (dermal fibroblasts [2]; after 3 hours of culture)
1 | Ala-Val-Leu-Ala-Gly-Asp-NH2 (AVLAGD-NH2) [peptide SEQ ID no 1] | net resistance to cellular stress induced by glycation | 20% | 30% | 20% | – | –
2 | AVLAGD [peptide SEQ ID No 2] | – | – | – | – | 17% | 67%
